Columns and labels:
[1] = tested on: surinam grass; test: Test B pre/postemergence surinam grass; assay type: in vivo, Brachiaria decumbens
Procedure, shortened: (§1)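 Response is a visual 0-to-10 score relative to untreated plants, where 0 means no effect and 10 means complete control, taken twelve to sixteen days after application. Treatments went onto soil at planting and onto foliage of 1- to 4-leaf plants, using a surfactant-containing non-phytotoxic solvent.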

[2] = tested on: bamyardgrass; test: Test B flood test barnyardgrass; assay type: in vivo, Echinochloa crus-galli
Procedure, shortened: (§2)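 Plants were grown to the 2-leaf stage before treatment with test chemical, then held in a greenhouse for twelve to sixteen days. Injury was visually rated against untreated controls on a 0–10 scale, where 0 is no effect and 10 is complete control.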

[3] = tested on: smallflower flatsedge; test: Test B flood test smallflower flatsedge; assay type: in vivo, Cyperus difformis
Procedure, shortened: as §2

[4] = tested on: wheat; test: Test B pre/postemergence wheat; assay type: in vivo, Triticum aestivum; conditions: for Plant response rating, Wheat: scale of 0 to 10 where 0 is no effect and 10 is complete control
Procedure, shortened: as §1

[5] = tested on: velvetleaf; test: Test B pre/postemergence velvetleaf; assay type: in vivo, Abutilon theophrasti; conditions: for Plant response rating, Velvetleaf: scale of 0 to 10 where 0 is no effect and 10 is complete control
Procedure, shortened: as §1

[6] = tested on: corn; test: Test B pre/postemergence corn; assay type: in vivo, Zea mays
Procedure, shortened: as §1

[7] = tested on: purple nutsedge; test: Test B pre/postemergence purple nutsedge; assay type: in vivo, Cyperus rotundus; conditions: for Plant response rating, Nutsedge: scale of 0 to 10 where 0 is no effect and 10 is complete control
Procedure, shortened: as §1

[8] = tested on: giant foxtail; test: Test B pre/postemergence giant foxtail; assay type: in vivo, Setaria faberii
Procedure, shortened: as §1

[9] = tested on: pigweed; test: Test B pre/postemergence pigweed; assay type: in vivo, Amaranthus retroflexus; conditions: for Plant response rating, Redroot pigweed: scale of 0 to 10 where 0 is no effect and 10 is complete control
Procedure, shortened: as §1

[10] = tested on: crabgrass; test: Test B pre/postemergence crabgrass; assay type: in vivo, Digitaria sanguinalis
Procedure, shortened: as §1

[11] = tested on: soybean; test: Test B pre/postemergence soybean; assay type: in vivo, Glycine max; conditions: for Plant response rating, Soybean: scale of 0 to 10 where 0 is no effect and 10 is complete control
Procedure, shortened: as §1

[12] = tested on: rape; test: Test B pre/postemergence rape; assay type: in vivo, Brassica napus; conditions: for Plant response rating, Rape: scale of 0 to 10 where 0 is no effect and 10 is complete control
Procedure, shortened: as §1

[13] = tested on: cocklebur; test: Test B pre/postemergence cocklebur; assay type: in vivo, Xanthium strumarium
Procedure, shortened: as §1

[14] = tested on: sugar beet; test: Test B pre/postemergence sugar beet; assay type: in vivo, Beta vulgaris; conditions: for Plant response rating, Sugarbeets: scale of 0 to 10 where 0 is no effect and 10 is complete control
Procedure, shortened: as §1

[15] = tested on: duck salad; test: Test B flood test duck salad; assay type: in vivo, Heteranthera limosa
Procedure, shortened: as §2

[16] = tested on: wild oat; test: Test B pre/postemergence wild oat; assay type: in vivo, Avena fatua; conditions: for Plant response rating, Wild oats: scale of 0 to 10 where 0 is no effect and 10 is complete control
Procedure, shortened: as §1

[17] = Postemergence, Rate 500 g/ha, scale of 0 to 10 where 0 is no effect and 10 is complete control
[18] = Preemergence, Rate 62 g/ha, scale of 0 to 10 where 0 is no effect and 10 is complete control
[19] = Preemergence, Rate 125 g/ha, scale of 0 to 10 where 0 is no effect and 10 is complete control
[20] = Preemergence, Rate 250 g/ha, scale 0 to 10, 0 is no effect, 10 is complete control
[21] = Preemergence, Rate 500 g/ha, scale 0 to 10, 0 is no effect, 10 is complete control
[22] = Rate 62 g/ha, Postemergence, scale 0 to 10 (0 no effect, 10 complete control)
[23] = Rate 125 g/ha, Postemergence, scale 0 to 10, 0 is no effect, 10 is complete control
[24] = Rate 62 g/ha, flood test species, Pre-emergence, visual evaluation after twelve to sixteen days
[25] = Rate 125 g/ha, under heading Pre-emergence, flood test species, visual evaluation after twelve to sixteen days
[26] = Rate 250 g/ha, Pre-emergence (flood test species), scale 0 to 10, 0 is no effect, 10 is complete control
[27] = Rate 500 g/ha, Pre-emergence, flood test species, scale 0 to 10 (0 no effect, 10 complete control)
[28] = Postemergence, Rate 250 g/ha, scale 0 to 10

COC(=O)C(C)n1c(=O)on(C(=O)N(c2ccc(F)cc2F)C(C)C)c1=O (stereo not drawn) [Compound 463]
6: Giant foxtail plant response rating [8, 28] | Giant foxtail plant response rating [8, 17]
5: Plant response rating, Redroot pigweed ([9]; Preemergence, Rate 125 g/ha)
10: Giant foxtail plant response rating [8, 21] | Redroot pigweed plant response rating [9, 20] | Redroot pigweed plant response rating [9, 21]
3: Giant foxtail plant response rating [8, 20]
0: B. signalgrass plant response rating ([1]; Postemergence, Rate 250 g/ha, scale 0 to 10, 0 no effect, 10 complete control) | B. signalgrass plant response rating [1, 17] | Plant response rating, B. signalgrass [1, 18] | Plant response rating, B. signalgrass [1, 19] | B. signalgrass plant response rating [1, 20] | B. signalgrass plant response rating [1, 22] | B. signalgrass plant response rating [1, 23] | Plant response rating, Barnyardgrass (0 to 10 scale, 0 is no effect, 10 is complete control) [2, 24] | Barnyardgrass plant response rating (0 to 10 scale, 0 is no effect, 10 is complete control) [2, 25] | Barnyardgrass plant response rating [2, 26] | Barnyardgrass plant response rating [2, 27] | Plant response rating, S. Flatsedge (0 to 10 scale, 0 is no effect, 10 is complete control) [3, 24] | S. Flatsedge plant response rating (0 to 10 scale, 0 is no effect, 10 is complete control) [3, 25] | S. Flatsedge plant response rating [3, 26] | S. Flatsedge plant response rating [3, 27] | Wheat plant response rating [4, 28] | Plant response rating, Wheat ([4]; Preemergence, Rate 62 g/ha) | Plant response rating, Wheat ([4]; Preemergence, Rate 125 g/ha) | Wheat plant response rating [4, 20] | Wheat plant response rating [4, 21] | Wheat plant response rating [4, 22] | Wheat plant response rating [4, 23] | Velvetleaf plant response rating [5, 28] | Plant response rating, Velvetleaf ([5]; Preemergence, Rate 62 g/ha) | Plant response rating, Velvetleaf ([5]; Preemergence, Rate 125 g/ha) | Velvetleaf plant response rating [5, 20] | Velvetleaf plant response rating [5, 22] | Velvetleaf plant response rating [5, 23] | Corn plant response rating [6, 28] | Corn plant response rating [6, 17] | Plant response rating, Corn [6, 18] | Plant response rating, Corn [6, 19] | Corn plant response rating [6, 20] | Corn plant response rating [6, 21] | Corn plant response rating [6, 22] | Corn plant response rating [6, 23] | Nutsedge plant response rating [7, 28] | Plant response rating, Nutsedge ([7]; Preemergence, Rate 62 g/ha) | Plant response rating, Nutsedge ([7]; Preemergence, Rate 125 g/ha) | Nutsedge plant response rating [7, 20] | Nutsedge plant response rating [7, 21] | Nutsedge plant response rating [7, 22] | Nutsedge plant response rating [7, 23] | Plant response rating, Giant foxtail [8, 18] | Plant response rating, Giant foxtail [8, 19] | Giant foxtail plant response rating [8, 22] | Giant foxtail plant response rating [8, 23] | Redroot pigweed plant response rating [9, 28] | Redroot pigweed plant response rating [9, 22] | Redroot pigweed plant response rating [9, 23] | Plant response rating, Crabgrass [10, 18] | Plant response rating, Crabgrass [10, 19] | Crabgrass plant response rating [10, 22] | Crabgrass plant response rating [10, 23] | Plant response rating, Soybean ([11]; Preemergence, Rate 62 g/ha) | Plant response rating, Soybean ([11]; Preemergence, Rate 125 g/ha) | Soybean plant response rating [11, 20] | Soybean plant response rating [11, 21] | Rape plant response rating [12, 28] | Plant response rating, Rape ([12]; Preemergence, Rate 62 g/ha) | Plant response rating, Rape ([12]; Preemergence, Rate 125 g/ha) | Rape plant response rating [12, 20] | Rape plant response rating [12, 21] | Rape plant response rating [12, 22] | Rape plant response rating [12, 23] | Cocklebur plant response rating [13, 28] | Plant response rating, Cocklebur [13, 18] | Plant response rating, Cocklebur [13, 19] | Cocklebur plant response rating [13, 20] | Cocklebur plant response rating [13, 21] | Cocklebur plant response rating [13, 22] | Cocklebur plant response rating [13, 23] | Sugarbeets plant response rating [14, 28] | Plant response rating, Sugarbeets ([14]; Preemergence, Rate 62 g/ha) | Plant response rating, Sugarbeets ([14]; Preemergence, Rate 125 g/ha) | Sugarbeets plant response rating [14, 20] | Sugarbeets plant response rating [14, 21] | Sugarbeets plant response rating [14, 22] | Sugarbeets plant response rating [14, 23] | Plant response rating, Ducksalad (0 to 10 scale, 0 is no effect, 10 is complete control) [15, 24] | Ducksalad plant response rating (0 to 10 scale, 0 is no effect, 10 is complete control) [15, 25] | Ducksalad plant response rating [15, 26] | Ducksalad plant response rating [15, 27] | Wild oats plant response rating [16, 28] | Plant response rating, Wild oats ([16]; Preemergence, Rate 62 g/ha) | Plant response rating, Wild oats ([16]; Preemergence, Rate 125 g/ha) | Wild oats plant response rating [16, 20] | Wild oats plant response rating [16, 21] | Wild oats plant response rating [16, 22] | Wild oats plant response rating [16, 23]
1: Soybean plant response rating [11, 28] | Soybean plant response rating [11, 22] | Soybean plant response rating [11, 23]
2: B. signalgrass plant response rating [1, 21] | Velvetleaf plant response rating [5, 21] | Plant response rating, Redroot pigweed ([9]; Preemergence, Rate 62 g/ha) | Crabgrass plant response rating [10, 28] | Crabgrass plant response rating [10, 17] | Crabgrass plant response rating [10, 20] | Crabgrass plant response rating [10, 21] | Cocklebur plant response rating [13, 17]
